Experimental data reported in US9346795B2, “Substituted sulfonamides useful as antiapoptotic Bcl inhibitors” (Bristol-Myers Squibb Company, priority 2011, dated 2016).

Legend:
[1] = molecular target: Bcl-2 (Homo sapiens (Human), UniProt P10415); assay: Bcl-2/Bim Fluorescence Polarization Assay (FPA); assay type: binding
[2] = molecular target: Bcl-xL (Homo sapiens (Human), UniProt Q07817); assay: Bcl-xL/Bim Fluorescence Resonance Energy Transfer Assay (FRET); assay type: binding
Method in brief: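 IC50 values come from non-linear regression over an eleven-point compound titration. Each compound was first incubated with biotinylated Bcl-xL and Bim for 60 min at room temperature. FRET was then detected after a 30 min dark incubation with streptavidin-terbium.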

Sequence of Bcl-xL (Q07817 whole entry): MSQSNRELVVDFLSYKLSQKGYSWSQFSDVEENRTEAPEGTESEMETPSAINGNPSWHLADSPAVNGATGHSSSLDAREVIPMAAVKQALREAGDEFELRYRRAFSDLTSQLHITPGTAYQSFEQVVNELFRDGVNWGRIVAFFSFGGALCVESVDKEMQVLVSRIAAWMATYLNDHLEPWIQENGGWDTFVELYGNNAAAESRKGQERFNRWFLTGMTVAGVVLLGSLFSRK
Sequence of Bcl-2 (P10415 whole entry): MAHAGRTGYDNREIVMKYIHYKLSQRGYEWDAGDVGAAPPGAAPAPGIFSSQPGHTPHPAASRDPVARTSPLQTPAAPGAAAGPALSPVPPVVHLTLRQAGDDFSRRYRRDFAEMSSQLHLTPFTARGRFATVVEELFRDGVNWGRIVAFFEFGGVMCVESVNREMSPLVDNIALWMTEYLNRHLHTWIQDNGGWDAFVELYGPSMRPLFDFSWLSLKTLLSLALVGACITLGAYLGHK

| IC50 [1] | IC50 [2] | Structure (SMILES) |
| --- | --- | --- |
| 0.00885 µM | 0.05 µM | CCCCN(CCCC)C(=O)c1nn(-c2ccc(C(=O)NS(=O)(=O)c3ccc4c(ccn4Cc4ccc(Cl)c(Cl)c4)c3)cc2C(=O)N2Cc3ccccc3C[C@H]2CO)c(C)c1Cl [Example 198, N,N-dibutyl-4-chloro-1-(4-(1-(3,4-dichlorobenzyl)-1H-indol-5-ylsulfonylcarbamoyl)-2-((S)-3-(hydroxymethyl)-1,2,3,4-tetrahydroisoquinoline-2-carbonyl)phenyl)-5-methyl-1H-pyrazole-3-carboxamide] |
| 1.01 µM | 0.13 µM | CCCCN(CCC(=O)NCCN1CCN(C)CC1)C(=O)c1nn(-c2ccc(C(=O)NS(=O)(=O)c3ccc4c(c3)CCN4Cc3ccc(Cl)c(Cl)c3)cc2C(=O)N2CCc3ccccc3C2)c(C)c1Cl [Example 200, N-butyl-4-chloro-1-(4-(1-(3,4-dichlorobenzyl)indolin-5-ylsulfonylcarbamoyl)-2-(1,2,3,4-tetrahydroisoquinoline-2-carbonyl)phenyl)-5-methyl-N-(3-(2-(4-methylpiperazin-1-yl)ethylamino)-3-oxopropyl)-1H-pyrazole-3-carboxamide] |
| 0.01 µM | 0.01 µM | CCCCN(CCCC)C(=O)c1nn(-c2ccc(C(=O)NS(=O)(=O)c3ccc4cccc(Cl)c4c3)cc2C(=O)N2Cc3ccccc3C[C@H]2CN)c(C)c1Cl [Example 203, 1-(2-((S)-3-(aminomethyl)-1,2,3,4-tetrahydroisoquinoline-2-carbonyl)-4-(8-chloronaphthalen-2-ylsulfonylcarbamoyl)phenyl)-N,N-dibutyl-4-chloro-5-methyl-1H-pyrazole-3-carboxamide] |
| 0.00915 µM | 0.00885 µM | CCCCN(CCCC)C(=O)c1nn(-c2ccc(C(=O)NS(=O)(=O)c3cc(Br)c4c(c3)CCN4CC)cc2C(=O)N2Cc3ccccc3C[C@H]2CO)c(C)c1Cl [Example 205, 1-(4-(7-bromo-1-ethylindolin-5-ylsulfonylcarbamoyl)-2-((S)-3-(hydroxymethyl)-1,2,3,4-tetrahydroisoquinoline-2-carbonyl)phenyl)-N,N-dibutyl-4-chloro-5-methyl-1H-pyrazole-3-carboxamide] |
| 0.00784 µM | 0.04 µM | CCCN(CCC)c1nn(-c2ccc(C(=O)NS(=O)(=O)c3ccc4c(Cl)ccc(Br)c4c3)cc2C(=O)N2Cc3ccccc3C[C@H]2CO)c(C)c1Cl [Example 207, N-(8-bromo-5-chloronaphthalen-2-ylsulfonyl)-4-(4-chloro-3-(dipropylamino)-5-methyl-1H-pyrazol-1-yl)-3-((S)-3-(hydroxymethyl)-1,2,3,4-tetrahydroisoquinoline-2-carbonyl)benzamide] |
| 0.01 µM | 0.08 µM | CCCCN(Cc1ccc(-c2ccc(CC(=O)O)cc2)cc1)C(=O)c1nn(-c2ccc(C(=O)NS(=O)(=O)c3ccc4c(c3)CCN4Cc3ccc(Cl)c(Cl)c3)cc2C(=O)N2CCc3ccccc3C2)c(C)c1Cl [Example 213, 2-(4′-((N-butyl-4-chloro-1-(4-(1-(3,4-dichlorobenzyl)indolin-5-ylsulfonylcarbamoyl)-2-(1,2,3,4-tetrahydroisoquinoline-2-carbonyl)phenyl)-5-methyl-1H-pyrazole-3-carboxamido)methyl)biphenyl-4-yl)acetic acid] |
| 0.01 µM | 0.07 µM | CCCCN(C(=O)c1nn(-c2ccc(C(=O)NS(=O)(=O)c3ccc4c(Cl)ccc(Br)c4c3)cc2C(=O)N2CCc3ccccc3C2)c(C)c1Cl)c1cccc(-c2ccc(Cl)cc2)c1 [Example 217, 1-(4-(8-bromo-5-chloronaphthalen-2-ylsulfonylcarbamoyl)-2-(1,2,3,4-tetrahydroisoquinoline-2-carbonyl)phenyl)-N-butyl-4-chloro-N-(4′-chlorobiphenyl-3-yl)-5-methyl-1H-pyrazole-3-carboxamide] |
| 0.04 µM | 0.04 µM | CCCCN(C(=O)c1nn(-c2ccc(C(=O)NS(=O)(=O)c3ccc4c(Cl)ccc(Cl)c4c3)cc2C(=O)N2CCc3ccccc3C2)c(C)c1Cl)c1cccc(-c2ccc(Cl)cc2)c1 [Example 221, N-butyl-4-chloro-N-(4′-chlorobiphenyl-3-yl)-1-(4-(5,8-dichloronaphthalen-2-ylsulfonylcarbamoyl)-2-(1,2,3,4-tetrahydroisoquinoline-2-carbonyl)phenyl)-5-methyl-1H-pyrazole-3-carboxamide] |
| 0.07 µM | 0.04 µM | CCCCN(C(=O)c1nn(-c2ccc(C(=O)NS(=O)(=O)c3ccc4c(Cl)ccc(Cl)c4c3)cc2C(=O)N2CCc3ccccc3C2)c(C)c1Cl)c1cccc(-c2cccc(Cl)c2)c1 [Example 222, N-butyl-4-chloro-N-(3′-chlorobiphenyl-3-yl)-1-(4-(5,8-dichloronaphthalen-2-ylsulfonylcarbamoyl)-2-(1,2,3,4-tetrahydroisoquinoline-2-carbonyl)phenyl)-5-methyl-1H-pyrazole-3-carboxamide] |
| 0.1 µM | 0.06 µM | CCCCc1c(-c2ccc(C(=O)NS(=O)(=O)c3ccc4ccccc4c3)cc2C(=O)N2CCc3ccccc3C2)c(C(=O)OCC)nn1-c1ccc(Oc2ccccc2)cc1 [Example 228, Ethyl 5-butyl-4-(4-(naphthalen-2-ylsulfonylcarbamoyl)-2-(1,2,3,4-tetrahydroisoquinoline-2-carbonyl)phenyl)-1-(4-phenoxyphenyl)-1H-pyrazole-3-carboxylate] |
| 0.02 µM | 0.06 µM | CCCCc1c(-c2ccc(C(=O)NS(=O)(=O)c3ccc4ccccc4c3)cc2C(=O)N2CCc3ccccc3C2)c(C(=O)OCC)nn1-c1ccc(Oc2cccc(Cl)c2)cc1 [Example 230, Ethyl 5-butyl-1-(4-(3-chlorophenoxy)phenyl)-4-(4-(naphthalen-2-ylsulfonylcarbamoyl)-2(1,2,3,4-tetrahydroisoquinoline-2-carbonyl)phenyl)-1H-pyrazole-3-carboxylate] |

Continued, compound first:

| Structure (SMILES) | IC50 [1] | IC50 [2] |
| --- | --- | --- |
| CCCCN(Cc1ccc(Cl)c(Cl)c1)C(=O)c1nn(-c2ccc(C(=O)NS(=O)(=O)c3ccc4ccc(I)cc4c3)cc2C(=O)N2CCc3ccccc3C2)c(C)c1Cl [Example 179, N-Butyl-4-chloro-N-(3,4-dichlorobenzyl)-1-(4-(7-iodonaphthalen-2-ylsulfonylcarbamoyl)-2-(1,2,3,4-tetrahydroisoquinoline-2-carbonyl)phenyl)-5-methyl-1H-pyrazole-3-carboxamide] | 0.02 µM | 0.08 µM |
| CCCCN(Cc1ccc(Cl)c(Cl)c1)C(=O)c1nn(-c2ccc(C(=O)NS(=O)(=O)c3ccc4cccc(Cl)c4c3)cc2C(=O)N2Cc3ccccc3C[C@H]2CO)c(C)c1Cl [Example 181, N-Butyl-4-chloro-1-(4-(8-chloronaphthalen-2-ylsulfonylcarbamoyl)-2-((S)-3-(hydroxymethyl)-1,2,3,4-tetrahydroisoquinoline-2-carbonyl)phenyl)-N-(3,4-dichlorobenzyl)-5-methyl-1H-pyrazole-3-carboxamide] | 0.00849 µM | 0.05 µM |
| CCCCN(CCCC)C(=O)c1nn(-c2ccc(C(=O)NS(=O)(=O)c3ccc4c(c3)CCN4Cc3ccc(Cl)c(Cl)c3)cc2C(=O)N2Cc3ccccc3C[C@H]2CO)c(C)c1Cl [Example 189, N,N-Dibutyl-4-chloro-1-(4-(1-(3,4-dichlorobenzyl)indolin-5-ylsulfonylcarbamoyl)-2-((S)-3-(hydroxymethyl)-1,2,3,4-tetrahydroisoquinoline-2-carbonyl)phenyl)-5-methyl-1H-pyrazole-3-carboxamide] | 0.01 µM | 0.04 µM |
| CCCCN(CCCC)c1nn(-c2ccc(C(=O)NS(=O)(=O)c3ccc4ccccc4c3)cc2C(=O)N2CCc3ccccc3C2)c(C)c1Cl [Example 191, 4-(4-Chloro-3-(dibutylamino)-5-methyl-1H-pyrazol-1-yl)-N-(naphthalen-2-ylsulfonyl)-3-(1,2,3,4-tetrahydroisoquinoline-2-carbonyl)benzamide] | 0.26 µM | 0.69 µM |
| CCCN(CCC)c1nn(-c2ccc(C(=O)NS(=O)(=O)c3ccc4ccccc4c3)cc2C(=O)N2Cc3ccccc3C[C@H]2CO)c(C)c1Cl [Example 192, 4-(4-Chloro-3-(dipropylamino)-5-methyl-1H-pyrazol-1-yl)-3-((S)-3-(hydroxymethyl)-1,2,3,4-tetrahydroisoquinoline-2-carbonyl)-N-(naphthalen-2-ylsulfonyl)benzamide] | 0.06 µM | 0.03 µM |
| CCCN(CCC)c1nn(-c2ccc(C(=O)NS(=O)(=O)c3ccc4cccc(Cl)c4c3)cc2C(=O)N2Cc3ccccc3C[C@H]2CO)c(C(F)(F)F)c1Cl [Example 195, 4-(4-Chloro-3-(dipropylamino)-5-(trifluoromethyl)-1H-pyrazol-1-yl)-N-(8-chloronaphthalen-2-ylsulfonyl)-3-((S)-3-(hydroxymethyl)-1,2,3,4-tetrahydroisoquinoline-2-carbonyl)benzamide] | 0.03 µM | 0.29 µM |
| CCCN(CCC)c1nn(-c2ccc(C(=O)NS(=O)(=O)c3ccc4cccc(Cl)c4c3)cc2C(=O)N2CCc3ccccc3C2)c(C(F)(F)F)c1Cl [Example 196, 4-(4-Chloro-3-(dipropylamino)-5-(trifluoromethyl)-1H-pyrazol-1-yl)-N-(8-chloronaphthalen-2-ylsulfonyl)-3-(1,2,3,4-tetrahydroisoquinoline-2-carbonyl)benzamide] | 0.04 µM | 0.51 µM |
| CCCCN(CCCC)C(=O)c1nn(-c2ccc(C(=O)NS(=O)(=O)c3cc(Br)c4c(ccn4CC)c3)cc2C(=O)N2Cc3ccccc3C[C@H]2CO)c(C)c1Cl [Example 208, 1-(4-(7-bromo-1-ethyl-1H-indol-5-ylsulfonylcarbamoyl)-2-((S)-3-(hydroxymethyl)-1,2,3,4-tetrahydroisoquinoline-2-carbonyl)phenyl)-N,N-dibutyl-4-chloro-5-methyl-1H-pyrazole-3-carboxamide] | 0.00359 µM | 0.00788 µM |
| CCCCc1c(-c2ccc(C(=O)NS(=O)(=O)CC[Si](C)(C)C)cc2C(=O)N2CCc3ccccc3C2)c(C(=O)OCC)nn1-c1ccccc1 [Example 239, Ethyl 5-butyl-1-phenyl-4-(2-(1,2,3,4-tetrahydroisoquinoline-2-carbonyl)-4-(2-(trimethylsilyl)ethylsulfonylcarbamoyl)phenyl)-1H-pyrazole-3-carboxylate] | 0.58 µM | 0.03 µM |
